# Measured values: patent US9670212B2, “Inhibitors of PI3K-delta and methods of their use and manufacture” (Exelixis, Inc., priority 2010, dated 2017)
# Target: PI3K delta (Homo sapiens (Human), UniProt O00329)
# Experiment: Luciferase-coupled chemiluminescence kinase assay (KinaseGlo, ATP consumption)
# Assay type: biochemical
# Outline: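 Kinase, compound and ATP (at or below KM) reacted 2 h at ambient temperature; remaining ATP detected by KinaseGlo luciferase chemiluminescence as percent ATP consumed. 10-point dose-response, curves fitted to give IC50.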
# Sequence of PI3K delta (O00329 whole entry): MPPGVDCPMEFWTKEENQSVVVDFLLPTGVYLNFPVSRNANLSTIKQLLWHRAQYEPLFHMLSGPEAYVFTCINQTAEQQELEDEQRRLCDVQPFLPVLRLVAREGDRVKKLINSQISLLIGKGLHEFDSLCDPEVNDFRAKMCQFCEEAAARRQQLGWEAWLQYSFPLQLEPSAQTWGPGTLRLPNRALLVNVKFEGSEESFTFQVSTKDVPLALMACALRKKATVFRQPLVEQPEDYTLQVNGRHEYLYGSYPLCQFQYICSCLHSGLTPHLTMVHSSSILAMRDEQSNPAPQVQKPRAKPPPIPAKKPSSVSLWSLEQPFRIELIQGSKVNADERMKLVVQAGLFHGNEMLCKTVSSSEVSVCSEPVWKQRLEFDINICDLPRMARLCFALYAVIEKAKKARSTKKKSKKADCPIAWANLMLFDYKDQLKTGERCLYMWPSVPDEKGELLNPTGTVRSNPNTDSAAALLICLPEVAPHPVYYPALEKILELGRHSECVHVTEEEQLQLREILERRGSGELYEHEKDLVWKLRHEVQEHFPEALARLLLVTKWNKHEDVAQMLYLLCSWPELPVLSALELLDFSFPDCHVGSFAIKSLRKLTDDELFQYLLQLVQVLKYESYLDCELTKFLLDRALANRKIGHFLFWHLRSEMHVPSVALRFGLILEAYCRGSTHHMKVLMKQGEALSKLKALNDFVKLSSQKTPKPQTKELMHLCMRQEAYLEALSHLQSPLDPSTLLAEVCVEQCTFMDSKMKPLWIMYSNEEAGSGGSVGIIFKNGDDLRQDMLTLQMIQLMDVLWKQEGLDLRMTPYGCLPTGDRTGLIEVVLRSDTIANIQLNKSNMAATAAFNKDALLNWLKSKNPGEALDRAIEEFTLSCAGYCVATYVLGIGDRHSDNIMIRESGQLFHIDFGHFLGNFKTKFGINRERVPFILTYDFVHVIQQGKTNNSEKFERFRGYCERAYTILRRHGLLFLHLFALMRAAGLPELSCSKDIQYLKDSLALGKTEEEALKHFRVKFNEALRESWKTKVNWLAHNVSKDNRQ
# Sequence of PI3K delta (P27986 whole entry partner): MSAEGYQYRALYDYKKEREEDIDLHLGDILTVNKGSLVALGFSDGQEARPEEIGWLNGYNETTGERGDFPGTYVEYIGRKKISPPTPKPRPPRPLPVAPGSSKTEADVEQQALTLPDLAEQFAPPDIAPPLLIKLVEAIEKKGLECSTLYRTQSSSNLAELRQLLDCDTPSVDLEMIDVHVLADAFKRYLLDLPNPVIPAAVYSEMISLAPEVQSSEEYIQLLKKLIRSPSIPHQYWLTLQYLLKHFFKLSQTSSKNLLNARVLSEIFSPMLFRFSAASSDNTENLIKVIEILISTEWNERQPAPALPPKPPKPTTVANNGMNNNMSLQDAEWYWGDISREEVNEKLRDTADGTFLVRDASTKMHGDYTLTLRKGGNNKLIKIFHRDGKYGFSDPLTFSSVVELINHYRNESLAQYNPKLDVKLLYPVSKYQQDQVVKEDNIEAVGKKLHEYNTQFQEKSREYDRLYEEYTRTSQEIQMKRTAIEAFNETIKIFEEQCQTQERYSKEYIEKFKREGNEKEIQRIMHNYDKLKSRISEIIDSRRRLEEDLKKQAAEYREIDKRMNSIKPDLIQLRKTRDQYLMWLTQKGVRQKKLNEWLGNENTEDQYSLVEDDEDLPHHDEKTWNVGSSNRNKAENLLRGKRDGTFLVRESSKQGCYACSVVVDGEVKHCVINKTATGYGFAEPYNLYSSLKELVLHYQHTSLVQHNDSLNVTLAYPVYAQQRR
row,SMILES,IC50
1,"Cc1cccc2cc(CNC(=O)c3nccnc3N)c(N3CCCN(C(=O)CN(C)C)CC3)nc12 [Compound 137, 3-amino-N-({2-[4-(N,N-dimethylglycyl)-1,4-diazepan-1-yl]-8-methylquinolin-3-yl}methyl}pyrazine-2-carboxamide]",250 to 500 nM
2,"Cc1cccc2cc(CNC(=O)c3nccnc3N)c(NCCCN(C)C)nc12 [Compound 138, 3-amino-N-[(2-{[3-(dimethylamino)propyl]amino}-8-methylquinolin-3-yl)methyl]pyrazine-2-carboxamide]",500 to 1500 nM
3,"Cc1cccc2cc(CNC(=O)c3nccnc3N)c(N3CCCNCC3)nc12 [Compound 139, 3-amino-N-{[2-(1,4-diazepan-1-yl)-8-methylquinolin-3-yl]methyl}pyrazine-2-carboxamide]",250 to 500 nM
4,"Cc1cccc2cc(CNC(=O)c3nccnc3N)c(N3CCCN(C)CC3)nc12 [Compound 140, 3-amino-N-{[8-methyl-2-(4-methyl-1,4-diazepan-1-yl)quinolin-3-yl]methyl}pyrazine-2-carboxamide]",250 to 500 nM
5,"Cc1ccccc1-c1cc2ccccc2nc1CNc1ncnc2[nH]nc(Br)c12 [Compound 141, 3-bromo-N-{[3-(2-methylphenyl)quinolin-2-yl]methyl}-1H-pyrazolo[3,4-d]primidin-4-amine]",500 to 1500 nM
6,"Cc1ccccc1-c1cc2ccccc2nc1CNC(=O)c1nccnc1N [Compound 142, 3-amino-N-{[3-(2-methylphenyl)quinolin-2-yl]methyl}pyrazine-2-carboxamide]",500 to 1500 nM
7,"CC(=O)N1CCN(c2nc3c(C)cccc3cc2CNc2ncnc3[nH]cnc23)CC1 [Compound 143, N-{[2-(4-acetylpiperazin-1-yl)-8-methylquinolin-3-yl]methyl}-9H-purin-6-amine]",< 50 nM
8,"CCN1CCN(c2nc3c(C)cccc3cc2CNc2ncnc3[nH]cnc23)CC1 [Compound 144, N-{[2-(4-ethylpiperazin-1-yl)-8-methylquinolin-3-yl]methyl}-9H-purin-6-amine]",< 50 nM
9,"Cc1ccccc1-c1cc2ccccc2nc1Cn1nc(I)c2c(N)ncnc21 [Compound 145, 3-iodo-1-{[3-(2-methylphenyl)quinolin-2-yl]methyl}-1H-pyrazolo[3,4-d]pyrimidin-4-amine]",< 50 nM
10,"Cc1cccc2cc(CNc3ncnc4[nH]cnc34)c(N3CCCN(C)CC3)nc12 [Compound 146, N-{[8-methyl-2-(4-methyl-1,4-diazepan-1-yl)quinolin-3-yl]methyl}-9H-purin-6-amine]",< 50 nM
11,"Cc1cccc2cc(CNC(=O)c3nccnc3N)c(N3CCCCC3)nc12 [Compound 147, 3-amino-N-[(8-methyl-2-piperidin-1-ylquinolin-3-yl)methyl]pyrazine-2-carboxamide]",500 to 1500 nM
12,"Cc1cccc2cc(CNC(=O)c3nccnc3N)c(-c3ccccc3Cl)nc12 [Compound 148, 3-amino-N-{[2-(2-chlorophenyl)-8-methylquinolin-3-yl]methyl}pyrazine-2-carboxamide]",50 to 250 nM
13,"CNCCN(C)c1nc2c(C)cccc2cc1Cn1cnc2c(N)ncnc21 [Compound 149, N-{3-[(6-amino-9H-purin-9-yl)methyl]-8-methylquinolin-2-yl}-N,N′-dimethylethane-1,2-diamine]",< 50 nM
14,"Cc1cccc2cc(Cn3cnc4c(N)ncnc43)c(N3CC4CC3CN4C)nc12 (stereo not drawn) [Compound 150, 9-{[8-methyl-2-(5-methyl-2,5-diazabicyclo[2.2.1]hept-2-yl)quinolin-3-yl]methyl}-9H-purin-6-amine]",500 to 1500 nM
15,Cc1ccccc1-n1c(CNC(=O)c2nccnc2N2CCOCC2)nc2cccc(C)c2c1=O [Compound 151],500 to 1500 nM
16,"Cc1cccc2cc(C(C)Nc3ncnc4[nH]cnc34)c(-c3ccccc3Cl)nc12 (stereo not drawn) [Compound 152, N-{1-[2-(2-chlorophenyl)-8-methylquinolin-3-yl]ethyl}-9H-purin-6-amine]",< 50 nM
17,"Cc1cccc2cc(Cn3cnc4c(N)ncnc43)c(NS(C)(=O)=O)nc12 [Compound 153, N-{3-[(6-amino-9H-purin-9-yl)methyl]-8-methylquinolin-2-yl}methanesulfonamide]",500 to 1500 nM
18,"Cc1cccc2cc(CNc3ncnc4[nH]cnc34)c(-c3ccccc3Cl)nc12 [Compound 154, N-{[2-(2-chlorophenyl)-8-methylquinolin-3-yl]methyl}-9H-purin-6-amine]",< 50 nM
19,"Cc1ccccc1-c1cc2ccccc2nc1CNc1ncnc2[nH]cnc12 [Compound 155, N-{[3-(2-methylphenyl)quinolin-2-yl]methyl}-9H-purin-6-amine]",50 to 250 nM
20,"Cc1cccc2cc(Cn3cnc4c(N)ncnc43)c(NS(=O)(=O)c3ccccc3)nc12 [Compound 156, N-{3-[(6-amino-9H-purin-9-yl)methyl]-8-methylquinolin-2-yl}benzenesulfonamide]",500 to 1500 nM
21,"Cc1ccccc1-n1c(CCN)nc2cccc(C)c2c1=O [Compound 157, 2-(2-aminoethyl)-5-methyl-3-(2-methylphenyl)quinazolin-4(3H)-one]",500 to 1500 nM

row,SMILES,IC50
1,"Cc1ccccc1-n1c(CNC(=O)c2nccnc2Cl)nc2cccc(C)c2c1=O [Compound 159, 3-chloro-N-{[5-methyl-3-(2-methylphenyl)-4-oxo-3,4-dihydroquinazolin-2-yl]methyl}pyrazine-2-carboxamide]",500 to 1500 nM
2,"Cc1ccccc1-n1c(CNC(=O)c2nc(Br)cnc2N)nc2cccc(C)c2c1=O [Compound 160, 3-amino-6-bromo-N-{[5-methyl-3-(2-methylphenyl)-4-oxo-3,4-dihydroquinazolin-2-yl]methyl}pyrazine-2-carboxamide]",500 to 1500 nM
3,"Cc1ccccc1-n1c(CNC(=O)c2ncccc2N)nc2cccc(C)c2c1=O [Compound 161, 3-amino-N-{[5-methyl-3-(2-methylphenyl)-4-oxo-3,4-dihydroquinazolin-2-yl]methyl}pyridine-2-carboxamide]",500 to 1500 nM
4,"Cc1ccccc1-n1c(Cn2cnc3c(N)ncnc32)nc2ccsc2c1=O [Compound 162, 2-[(6-amino-9H-purin-9-yl)methyl]-3-(2-methylphenyl)thieno[3,2-d]pyrimidin-4(3H)-one]",500 to 1500 nM
5,"Cc1ccccc1-n1c(CSc2ncnc3nc[nH]c23)nc2ccsc2c1=O [Compound 163, 3-(2-methylphenyl)-2-[(7H-purin-6-ylthio)methyl]thieno[3,2-d]pyrimidin-4(3H)-one]",500 to 1500 nM
6,"Cc1cccc2cc(Cn3cnc4c(N)ncnc43)c(NC3CCN(C)CC3)nc12 [Compound 164, 3-[(6-amino-9H-purin-9-yl)methyl]-8-methyl-N-(1-methylpiperidin-4-yl)quinolin-2-amine]",500 to 1500 nM
7,"Cc1cccc2cc(Cn3cnc4c(N)ncnc43)c(NC3CCOCC3)nc12 [Compound 165, 3-[(6-amino-9H-purin-9-yl)methyl]-8-methyl-N-(tetrahydro-2H-pyran-4-yl)quinolin-2-amine]",500 to 1500 nM
8,"CC(=O)N1CCN(c2nc3c(C)cccc3cc2Cn2cnc3c(N)ncnc32)CC1 [Compound 166, 9-{[2-(4-acetylpiperazin-1-yl)-8-methylquinolin-3-yl]methyl}-9H-purin-6-amine]",50 to 250 nM
9,"COCCNc1nc2c(C)cccc2cc1Cn1cnc2c(N)ncnc21 [Compound 167, 3-[(6-amino-9H-purin-9-yl)methyl]-8-methyl-N-[2-(methyloyx)ethyl]quinolin-2-amine]",500 to 1500 nM
10,"Cc1ccccc1-c1c(Cn2cnc3c(N)ncnc32)nc2ccccc2c1C [Compound 168, 9-{[4-methyl-3-(2-methylphenyl)quinolin-2-yl]methyl}-9H-purin-6-amine]",500 to 1500 nM
11,"Cc1ccccc1-c1c(Cn2cnc3ncnc(N)c32)nc2ccccc2c1C [Compound 169, 7-{[4-methyl-3-(2-methylphenyl)quinolin-2-yl]methyl}-7H-purin-6-amine]",500 to 1500 nM
12,"Cc1cccc2cc(Cn3cnc4c(N)ncnc43)c(N3CCCC3C)nc12 (stereo not drawn) [Compound 170, 9-{[8-methyl-2-(2-methylpyrrolidin-1-yl)quinolin-3-yl]methyl}-9H-purin-6-amine]",50 to 250 nM
13,"Cc1cccc2cc(Cn3cnc4c(N)ncnc43)c(N3CCCC3)nc12 [Compound 171, 9-[(8-methyl-2-pyrrolidin-1-ylquinolin-3-yl)methyl]-9H-purin-6-amine]",50 to 250 nM
14,"Cc1cccc2cc(Cn3cnc4c(N)ncnc43)c(N3CCNCC3)nc12 [Compound 172, 9-[(8-methyl-2-piperazin-1-ylquinolin-3-yl)methyl]-9H-purin-6-amine]",50 to 250 nM
15,"Cc1cccc2cc(Cn3cnc4c(N)ncnc43)c(N3CCN(C)CC3)nc12 [Compound 173, 9-{[8-methyl-2-(4-methylpiperazin-1-yl)quinolin-3-yl]methyl}-9H-purin-6-amine]",50 to 250 nM
16,"Cc1ccccc1-n1c(CNC(=O)c2ccnc(N)c2)nc2cccc(C)c2c1=O [Compound 174, 2-amino-N-{[5-methyl-3-(2-methylphenyl)-4-oxo-3,4-dihydroquinazolin-2-yl]methyl}pyridine-4-carboxamide]",500 to 1500 nM
17,"Cc1ccccc1-n1c(CNC(=O)c2nccnc2N)nc2cccc(C)c2c1=O [Compound 175, 3-amino-N-{[5-methyl-3-(2-methylphenyl)-4-oxo-3,4-dihydroquinazolin-2-yl]methyl}pyrazine-2-carboxamide]",< 50 nM
18,"Cc1ccccc1-n1c(CNC(=O)c2cccnc2N)nc2cccc(C)c2c1=O [Compound 176, 2-amino-N-{[5-methyl-3-(2-methylphenyl)-4-oxo-3,4-dihydroquinazolin-2-yl]methyl}pyridine-3-carboxamide]",500 to 1500 nM
19,"Cc1cccc2cc(Cn3cnc4c(N)ncnc43)c(N3CCOCC3)nc12 [Compound 177, 9-[(8-methyl-2-morpholin-4-ylquinolin-3-yl)methyl]-9H-purin-6-amine]",50 to 250 nM
20,"Cc1ccccc1-c1cc2ccccc2nc1Cn1cnc2ncnc(N)c21 [Compound 178, 7-{[3-(2-methylphenyl)quinolin-2-yl]methyl}-7H-purin-6-amine]",50 to 250 nM
21,"Cc1ccccc1-c1cc2ccccc2nc1Cn1cnc2c(N)ncnc21 [Compound 179, 9-{[3-(2-methylphenyl)quinolin-2-yl]methyl}-9H-purin-6-amine]",500 to 1500 nM
